Experimental findings from patent US6436903B1, “Immunomodulating compounds comprising d-isomers of amino acids” (Stanford University (Board of Trustees of the Leland …, priority 1996, dated 2002) are described below.

For data set [1], the system named is CD8+ CTL line specific for HLA-A2. The data set can be described thus: Cytotoxicity assay: inhibition of lysis by established CTL (51Cr-labeled JY targets). Format: cell-based, human. The protocol: CTL assays were performed as described using ^51Cr-labeled EBV transformed B cells expressing the appropriate HLA allele as targets [[…] et al., J. Immunol. (1982) 129:2001]. In the present protocol, a CD8+ CTL line specific for HLA-A2 was tested in the presence of various peptides for lysis of ^51Cr-labeled JY targets. Peptides were added to a final concentration of 100 μg/ml at the initiation of the 4 h assay. Each determination was the mean of triplicate wells.

Data set [2] deals with Lew specific CTL precursors in splenocytes. The data set can be described thus: Limiting dilution assay for CTL precursors in splenocytes of treated rats. Format: in vivo, rat. The note with it: treated on the day of splenectomy or 24 hours earlier. The protocol: The effect of peptides on CTL precursor frequencies in splenocytes was tested as follows. Limiting dilution analysis was carried out essentially as described (Moeller et al. 1993, supra; Skinner and Marbrook. J. Exp. Med. (1976) 143:1562). Briefly, spleens were removed from naive animals or from animals that had received an allograft a minimum of 60 days earlier and then teased into a single cell suspension. Responder cells were plated from 1000 to 40,000 cells per well (24 replicates per concentration) into round bottom microliter wells in RPMI 1640 supplemented with 10% fetal bovine serum (Hyclone, Logan, Utah), 2 mM L-glutamine, 5×10^5M μ-mercaptoethanol, 100 U/ml penicillin, 100 μg/ml streptomycin, 20% supernatant from Concanavalin A activated rat spleen cells, and 50 μM α-methyl mannoside. Then, 5×10^5 irradiated (2000 rads) stimulator cells were added to each well and plates were incubated in a humidified CO2 incubator. […] Aliquots of supernatant were counted in a gamma counter and CTL precursor frequency determined by linear regression (Skinner and Marbrook. 1976, supra). […]
PVG (RT1^c) or ACI (RT1^a) rats were treated with a single intravenous injection of saline or 2 mg of A2.75-84, B7.75-84, B2702.75-84, or RT1^a.75-84 peptide. […] CTL precursor frequency was determined by linear regression analysis.

The test system of the next data set is purified T cells. The data set can be described thus: Proliferation of purified T cells stimulated by immobilized anti-CD3. The note with it: immobilized anti-CD3 antibody. Format: cell-based, human. On the procedure: PBL were isolated from normal donors by centrifugation over Ficoll-Hypaque. In some cases, T cells were purified from this preparation using the method of Secrist et al. [J Exp. Med. (1993) 178:2123]. Briefly, cells isolated over Ficoll-Hypaque were incubated for 1 hour in Petri dishes. Nonadherent cells were passed over a nylon wool column and the resulting population was >90% CD3+ by FACS analysis. CD8+ CTL lines specific for HLA-A2, B7, B27, B48, or Cw4 were generated and maintained in long-term culture as previously described [Buxton et al., J Exp. Med. (1992) 175:809; Wesley et al., Hum. Immunol. (1993) 36:149]. Jurkat E6-1 and the T cell receptor negative Jurkat, JRT3-T3.5, were obtained from the American Type Culture Collection (ATCC; Rockville, Md.). […]
10^5 cells were added to microtiter wells that had been coated with anti-CD3 (Sigma, St. Louis, Mo.) at 5 μg/ml. […] Plates were harvested on a PHD Cell Harvester 24 hours later and [^3H]-thymidine incorporation determined by scintillation counting.
Peptides were evaluated for effects on the proliferation of purified T cells stimulated by immobilized anti-CD3 antibody. […]

The test system of data set [3] is abdominal heterotopic heart allografts. Description: Cardiac allograft survival in rats (Lew heart into ACI recipients). Format: in vivo, rat. The note with it: peptide in the two weeks before or 4 days after surgery plus CsA on days 0-4, rats. The text has this:
Vascularized cardiac allografts were heterotypically transplanted into the abdomen of recipient rats using a modification of the technique of Ono and Lindsay (Ono and Lindsey J. Thorac. Cardiovasc. Surg. (1969) 57:225). Abdominal allografts were palpated on a daily basis to assess graft function, and rejection was deemed complete when palpable ventricular contractions ceased.
Cyclosporin A (CsA, Sandoz Pharmaceuticals Corporation, Base, Switzerland) dissolved in olive oil was given orally through a gavage tube at the indicated dose. Peptides were dissolved in water or saline and given intravenously or by gavage as indicated.
Since the B7.75-84 and B2702.75-84 peptides blocked cellular immunity in vivo, we examined their effects on allograft survival in rats. ACI (RT1^a) recipients were given abdominal heterotopic heart allografts from Lew donors (Moeller et al. 1993, supra; Ono and Lindsey. 1969, supra). Graft function was monitored by daily abdominal palpation, and rejection was scored as complete when the palpable ventricular contractions ceased.

For the next data set, the system named is rat splenocytes. Description: Differentiation of rat splenocytes into allospecific CTL in vitro. It is filed as cell-based.
The next data set relates to draining lymph nodes. The data set can be described thus: Lymph node proliferation assay (footpad challenge with allogeneic versus syngeneic splenocytes). Conditions: treated within 24 hours of footpad injection. Format: in vivo, rat. The protocol: ACI or PVG rats (200 g) were injected intravenously with peptides dissolved in saline on day 0. On the indicated days thereafter, the left rear footpads of the rats were injected with 5×10^6 splenocytes from a syngeneic donor and the right rear footpads with 5×10^6 splenocytes from an allogeneic Lew donor (Moeller etal. Transplantation (1993)55:650). See also Twist and Barnes Transplantation (1973) 15:182; Fanslow et al. Science (1990) 248:739). Seven days after the footpad injection, the animals were sacrificed and the popliteal lymph nodes removed. A single cell suspension was prepared, and the cell number determined using a hemocytometer.
PVG or ACI rats (3 per group) were given a single intravenous injection of 2 mg of each of the four peptides or saline. On the day of treatment, or on days 1, 7, or 10 after treatment, the right footpads were injected with 5×10^6 syngeneic splenocytes while the left footpads were injected with 5×10^6 allogeneic Lew splenocytes. Seven days after the footpad injections, the draining lymph nodes were removed, a single cell suspension was prepared, and the cell number determined.

Entries after “also recorded” stand apart in the source; their conditions may differ. No end group written: not given here.

As for “WDRETQICKAKAQTDRENLRIALRY [Peptide B2702.60-84]”, the “potency relative to B2702.75-84, based on the concentration required to achieve 50% inhibition of cytotoxicity” value in data set [1] is reported as “approximately 5 fold”.

As for “B2702.75-84: synthetic peptide, HLA-B2702 residues 75-84, sequence RENLRIALRY [Peptide B2702.75-84]”, the “precursor frequency of Lew specific cells compared with saline” value in data set [2] is listed as “The same frequency”. The “inhibition of proliferation of purified T cells (3H-thymidine incorporation)” value with purified T cells is listed as “do not”. Further, the “inhibition of lysis by established CTL” value in data set [1] (HLA-A2 specific CD8+ CTL, 51Cr-labeled JY targets, peptide 100 μg/ml, 4 h assay) is recorded as “inhibited lysis by established CTL”. Also, the “allograft rejection under peptide in combination with CsA” value in data set [3] is listed as “rejected similarly to allografts in animals treated with CsA alone; also recorded: did not show prevention of allograft rejection”. Moreover, the “blocking of differentiation of rat splenocytes into allospecific CTL” value with rat splenocytes was “blocked the differentiation of rat splenocytes into allospecific CTL in vitro”. For the same substance, the “ratio of the number of cells recovered, allogeneic versus syngeneic side” value with draining lymph nodes is reported as “A similar ratio”.
